Key:
[1] = Inhibition of rabbit erythrocyte SAHase using S-adenosyl-L-homocysteine as substrate assessed as L-homocysteine formation incubated for 5 mins prior to substrate addition measured after 1 hr; design: species or system Oryctolagus cuniculus
Monkeypox virus = test: Antiviral activity against Monkeypox virus infected in African green monkey Vero E6 cells; assay type: functional, organism-based
[2] = Cytotoxicity against African green monkey Vero E6 cells; assay type: cell-based; settings: chlorocebus sabaeus
[3] = Selectivity index, ratio of CC50 for African green monkey Vero E6 cells to IC50 for Monkeypox virus; assay type: functional
Vaccinia virus = test: Antiviral activity against Vaccinia virus infected in HFF cells; assay type: functional, organism-based; settings: Orthopoxvirus vaccinia
[4] = Cytotoxicity against HFF cells; assay type: cell-based; settings: human
[5] = Selectivity index, ratio of CC50 for HFF cells to IC50 for Vaccinia virus; assay type: functional
Human betaherpesvirus 5 = test: Antiviral activity against human cytomegalovirus infected in HFF cells; assay type: functional, organism-based; settings: Human betaherpesvirus 5, HFF
[6] = Selectivity index, ratio of CC50 for HFF cells to IC50 for human cytomegalovirus; assay type: functional
Human papillomavirus = test: Antiviral activity against Human papillomavirus infected in HEK293 cells; assay type: functional, organism-based
[7] = Cytotoxicity against HEK293 cells; assay type: cell-based; settings: human
Measles morbillivirus = test: Antiviral activity against Measles virus infected in human MRC5 cells; assay type: functional, organism-based
[8] = Cytotoxicity against human MRC5 cells; assay type: cell-based
[9] = Selectivity index, ratio of CC50 for human MRC5 cells to IC50 for Measles virus; assay type: functional
Rift Valley fever virus = test: Antiviral activity against Rift Valley fever virus infected in African green monkey Vero 76 cells; assay type: functional, organism-based
[10] = Cytotoxicity against African green monkey Vero 76 cells; assay type: cell-based; settings: chlorocebus sabaeus
[11] = Selectivity index, ratio of CC50 for African green monkey Vero 76 cells to IC50 for Rift Valley fever virus; assay type: functional
Pichinde virus = test: Antiviral activity against Pichinde virus infected in African green monkey Vero 76 cells; assay type: functional, organism-based
[12] = Selectivity index, ratio of CC50 for African green monkey Vero cells to IC50 for Pichinde virus; assay type: functional
Tacaribe virus = test: Antiviral activity against Tacaribe virus infected in African green monkey Vero 76 cells; assay type: functional, organism-based; settings: Mammarenavirus tacaribeense
[13] = Selectivity index, ratio of CC50 for African green monkey Vero cells to IC50 for Tacaribe virus; assay type: functional
[14] = Cytotoxicity against African green monkey Vero cells; assay type: cell-based; settings: chlorocebus sabaeus
Hepatitis B virus = test: Antiviral activity against HBV; assay type: functional, organism-based
[15] = Selectivity index, ratio of CC50 for HEK293 cells to IC50 for Human papillomavirus; assay type: functional

Row | Compound | IC50 [1] [µM] | IC50 (Monkeypox virus) [µM] | CC50 [2] [µM] | Ratio CC50/IC50 [3] | IC50 (Vaccinia virus) [µM] | CC50 [4] [µM] | Ratio CC50/IC50 [5] | IC50 (Human betaherpesvirus 5) [µM] | Ratio CC50/IC50 [6] | IC50 (Human papillomavirus) [µM] | CC50 [7] [µM] | IC50 (Measles morbillivirus) [µM] | CC50 [8] [µM] | Ratio CC50/IC50 [9] | IC50 (Rift Valley fever virus) [µM] | CC50 [10] [µM] | Ratio CC50/IC50 [11] | IC50 (Pichinde virus) [µM] | IC50 (Tacaribe virus) [µM] | CC50 [14] [µM] | other results
1 | Nc1ncc(F)c2c1ncn2[C@@H]1C[C@H](CO)[C@@H](O)[C@H]1O | 0.029 | < 0.32 | > 100 | >313 | 48 | > 178 | >6 | > 60 | <3 | > 100 | > 100 | < 0.32 | > 100 | >313 | 56 | > 300 | >6.3 | 24 | 14 | 159 | Ratio CC50/IC50 [12]: 7; Ratio CC50/IC50 [13]: 11
2 | Nc1ncc(F)c2c1ncn2[C@@H]1O[C@H](CO)[C@@H](O)[C@H]1O | – | – | – | – | – | – | – | – | – | – | – | – | – | – | – | – | – | – | – | – | EC50 (Hepatitis B virus): 9.2 µM
3 | Nc1nccc2c1ncn2[C@@H]1C=C(CO)[C@@H](O)[C@H]1O | 0.0093 | – | – | – | – | – | – | – | – | – | – | – | – | – | – | – | – | – | – | – | –
4 | Nc1ncc(F)c2c1ncn2[C@@H]1C[C@H](O)[C@@H](O)[C@H]1O | 0.0058 | < 0.32 | > 100 | >313 | 142 | > 300 | >2 | > 300 | – | 23.9 | > 100 | < 0.32 | > 100 | >313 | > 300 | > 300 | – | > 300 | > 300 | > 300 | Ratio CC50/IC50 [15]: >4
5 | Nc1ncc(F)c2c1ncn2[C@@H]1C[C@H](CCO)[C@@H](O)[C@H]1O | 0.009 | < 0.32 | > 100 | >313 | 55.2 | > 264 | >5 | 1.49 | 177 | > 100 | > 100 | < 0.32 | > 100 | >313 | 34 | > 300 | >10 | 30 | 6.4 | 128 | Ratio CC50/IC50 [12]: 5.7; Ratio CC50/IC50 [13]: 20

From ChEMBL document CHEMBL3351456, “Synthesis and antiviral activities of 3-deaza-3-fluoroaristeromycin and its 5' analogues” (Bioorg Med Chem, 2014)
